Blank lines part the entries; values can stand above or below the molecule they belong to.
Tested on: LG0567-F671-PDC complex spheroids viability
Assay: Anticancer human tumor LG0567-F671-PDC patient-derived lung adenocarcinoma cell line growth inhibition [RAS]
Conditions: for IC50: curve of first compound; for viability, T/C: stronger effect = lower value
Method in brief: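 Multi-cell-type spheroids: tumor cells plus HUVEC endothelial cells and mesenchymal stem cells. RAS-pathway inhibitors were combined with targeted agents, each dosed in half-log steps down from clinical Cmax, or from 10 microM when Cmax was unknown.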

[1] = second compound 0.000949 µM, first compound 0.0316 µM
[2] = second compound 0.000949 µM, first compound 0.1 µM
[3] = second compound 0.000949 µM, first compound 0.316 µM
[4] = second compound 0.000949 µM, first compound 1 µM
[5] = second compound 0.003 µM, first compound 0.0316 µM
[6] = second compound 0.003 µM, first compound 0.1 µM
[7] = second compound 0.003 µM, first compound 0.316 µM
[8] = second compound 0.003 µM, first compound 1 µM
[9] = second compound 0.00949 µM, first compound 0.0316 µM
[10] = second compound 0.00949 µM, first compound 0.1 µM
[11] = second compound 0.00949 µM, first compound 0.316 µM
[12] = second compound 0.00949 µM, first compound 1 µM
[13] = second compound 0.03 µM, first compound 0.0316 µM
[14] = second compound 0.03 µM, first compound 0.1 µM
[15] = second compound 0.03 µM, first compound 0.316 µM
[16] = second compound 0.03 µM, first compound 1 µM
[17] = second compound 0.0949 µM, first compound 0.0316 µM
[18] = second compound 0.0949 µM, first compound 0.1 µM
[19] = second compound 0.0949 µM, first compound 0.316 µM
[20] = second compound 0.0949 µM, first compound 1 µM
[21] = second compound 0.3 µM, first compound 0.0316 µM
[22] = second compound 0.3 µM, first compound 0.1 µM
[23] = second compound 0.3 µM, first compound 0.316 µM
[24] = second compound 0.3 µM, first compound 1 µM
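Note: spheroids exposed to compound for seven days before readout.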
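Throughout, for IC50: luminescence signal used as a proxy for viable cells.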

IC50 (second compound 0.000949 µM): < 3.16 nM
IC50 (second compound 0.003 µM): < 3.16 nM
IC50 (second compound 0.00949 µM): < 3.16 nM
IC50 (second compound 0.03 µM): < 3.16 nM
IC50 (second compound 0.0949 µM): < 3.16 nM
IC50 (second compound 0.3 µM): < 3.16 nM
Structure (SMILES): O=C(c1ccc(F)c(F)c1Nc1ccc(I)cc1F)N1CC(O)([C@@H]2CCCCN2)C1 + CCn1c(-c2cc(N3CCN(C)CC3)cnc2C(C)OC)c2c3cc(ccc31)-c1csc(n1)CC(NC(=O)C1CC1C)C(=O)N1CCCC(N1)C(=O)OCC(C)(C)C2
viability, T/C (second compound 0.000949 µM, first compound 0.00316 µM): 21.6%
viability, T/C (second compound 0.000949 µM, first compound 0.01 µM): 13.6%
viability, T/C [1]: 8.81%
viability, T/C [2]: 6.2%
viability, T/C [3]: 1.53%
viability, T/C [4]: 0.54%
viability, T/C (second compound 0.003 µM, first compound 0.00316 µM): 8.59%
viability, T/C (second compound 0.003 µM, first compound 0.01 µM): 6.83%
viability, T/C [5]: 4.65%
viability, T/C [6]: 2.36%
viability, T/C [7]: 1.05%
viability, T/C [8]: 0.48%
viability, T/C (second compound 0.00949 µM, first compound 0.00316 µM): 5.45%
viability, T/C (second compound 0.00949 µM, first compound 0.01 µM): 3.36%
viability, T/C [9]: 2.12%
viability, T/C [10]: 0.98%
viability, T/C [11]: 0.46%
viability, T/C [12]: 0.34%
viability, T/C (second compound 0.03 µM, first compound 0.00316 µM): 3.69%
viability, T/C (second compound 0.03 µM, first compound 0.01 µM): 1.98%
viability, T/C [13]: 1.07%
viability, T/C [14]: 0.6%
viability, T/C [15]: 0.54%
viability, T/C [16]: 0.95%
viability, T/C (second compound 0.0949 µM, first compound 0.00316 µM): 1.82%
viability, T/C (second compound 0.0949 µM, first compound 0.01 µM): 1.19%
viability, T/C [17]: 0.64%
viability, T/C [18]: 0.56%
viability, T/C [19]: 0.47%
viability, T/C [20]: 0.32%
viability, T/C (second compound 0.3 µM, first compound 0.00316 µM): 1.58%
viability, T/C (second compound 0.3 µM, first compound 0.01 µM): 1.13%
viability, T/C [21]: 0.59%
viability, T/C [22]: 0.43%
viability, T/C [23]: 0.53%
viability, T/C [24]: 0.43%

IC50 (second compound 0.000949 µM): < 31.6 nM
IC50 (second compound 0.003 µM): < 31.6 nM
IC50 (second compound 0.00949 µM): < 31.6 nM
IC50 (second compound 0.03 µM): < 31.6 nM
IC50 (second compound 0.0949 µM): < 31.6 nM
IC50 (second compound 0.3 µM): < 31.6 nM
Structure (SMILES): C[C@@H](NC(=O)c1ncnc(N)c1Cl)c1ncc(C(=O)Nc2cc(C(F)(F)F)c(Cl)cn2)s1 + CCn1c(-c2cc(N3CCN(C)CC3)cnc2C(C)OC)c2c3cc(ccc31)-c1csc(n1)CC(NC(=O)C1CC1C)C(=O)N1CCCC(N1)C(=O)OCC(C)(C)C2
viability, T/C [1]: 30.9%
viability, T/C [2]: 37.5%
viability, T/C [3]: 43.4%
viability, T/C [4]: 39.1%
viability, T/C (second compound 0.000949 µM, first compound 3.16 µM): 40.3%
viability, T/C (second compound 0.000949 µM, first compound 10 µM): 35.3%
viability, T/C [5]: 19.7%
viability, T/C [6]: 18.3%
viability, T/C [7]: 19.9%
viability, T/C [8]: 22.7%
viability, T/C (second compound 0.003 µM, first compound 3.16 µM): 24.5%
viability, T/C (second compound 0.003 µM, first compound 10 µM): 26.4%
viability, T/C [9]: 7.34%
viability, T/C [10]: 8.73%
viability, T/C [11]: 10.4%
viability, T/C [12]: 11.1%
viability, T/C (second compound 0.00949 µM, first compound 3.16 µM): 13.5%
viability, T/C (second compound 0.00949 µM, first compound 10 µM): 12.6%
viability, T/C [13]: 5.32%
viability, T/C [14]: 5.26%
viability, T/C [15]: 5.82%
viability, T/C [16]: 8.15%
viability, T/C (second compound 0.03 µM, first compound 3.16 µM): 8.79%
viability, T/C (second compound 0.03 µM, first compound 10 µM): 9.05%
viability, T/C [17]: 4.43%
viability, T/C [18]: 3.63%
viability, T/C [19]: 3.94%
viability, T/C [20]: 5.56%
viability, T/C (second compound 0.0949 µM, first compound 3.16 µM): 5.9%
viability, T/C (second compound 0.0949 µM, first compound 10 µM): 7.14%
viability, T/C [21]: 3.16%
viability, T/C [22]: 4.04%
viability, T/C [23]: 3.86%
viability, T/C [24]: 4.35%
viability, T/C (second compound 0.3 µM, first compound 3.16 µM): 5.96%
viability, T/C (second compound 0.3 µM, first compound 10 µM): 5.33%

— PubChem BioAssay AID2060889 (Molecular Pharmacology Branch, DTP, NCI, 2025)
